Patent US20240246979A1, “cGAS INHIBITORS” (Eli Lilly and Company, priority 2022, published 2024)

Experiments:
cGAS [1] = molecular target: T1, cGAS (Homo sapiens, UniProt Q8N884); assay: In vitro inhibition assay of cGAS activity (cGAMP production, RapidFire mass spectrometry); type: biochemical; design: Insert cDNA encoding full-length of human cGAS; His6; made in house; host or cells: E. coli BL21(DE3); conditions: 10 nM recombinant human cGAS, 60 nM 75-bp dsDNA, 50 μM ATP, 50 μM GTP, 3 hrs
How it was run: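 Reactions in 10 mM Tris-Cl pH 7.5, 5 mM MgCl2, 0.01% Triton X-100 contained serially diluted compound, 10 nM recombinant cGAS, dsDNA activator and 50 μM each of ATP and GTP, run 3 hrs at ambient temperature. After formic acid quench, cGAMP output was measured by mass spectrometry and percent inhibition versus log concentration was fitted for IC50.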

cGAS [2] = molecular target: T1, cGAS; assay: Cellular assay to measure cGAS activity (IFNb AlphaLISA in THP1 cells stimulated by RDG-Adenovirus-GFP); type: cell-based; design: host or cells: THP1 cells differentiated with PMA and stimulated with RDG-Adenovirus-GFP; conditions: PMA-differentiated THP1 cells, RDG-Adenovirus-GFP at 1000 MOI; inhibition of IFNb production as marker for cGAS activity
How it was run: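 The readout is secreted IFNb measured by AlphaLISA after overnight compound exposure. THP1 cells, differentiated with PMA for 24 h and rested overnight, were infected with RDG-Adenovirus-GFP (1000 MOI, 4 h) before compounds were added; IC50 came from a 4-parameter logistic fit of inhibition against log concentration.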

T1 sequence (Q8N884 whole entry): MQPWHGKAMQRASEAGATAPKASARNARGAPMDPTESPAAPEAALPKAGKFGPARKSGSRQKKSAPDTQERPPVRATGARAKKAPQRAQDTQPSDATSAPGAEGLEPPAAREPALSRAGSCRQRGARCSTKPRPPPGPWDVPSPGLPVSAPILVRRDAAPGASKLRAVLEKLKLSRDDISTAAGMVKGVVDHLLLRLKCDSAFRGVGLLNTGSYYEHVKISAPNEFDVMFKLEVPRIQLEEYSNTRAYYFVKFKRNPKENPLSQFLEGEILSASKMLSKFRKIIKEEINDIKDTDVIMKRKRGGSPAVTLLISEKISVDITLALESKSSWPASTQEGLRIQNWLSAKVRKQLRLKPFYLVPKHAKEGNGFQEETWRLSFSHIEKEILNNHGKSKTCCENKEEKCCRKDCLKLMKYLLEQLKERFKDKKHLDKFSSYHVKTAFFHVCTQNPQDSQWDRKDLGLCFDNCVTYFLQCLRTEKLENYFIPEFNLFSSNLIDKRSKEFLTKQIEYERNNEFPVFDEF

CC1C(=O)NCCc2[nH]c3c(Cl)c(Cl)cc(CC#N)c3c21 (stereo not drawn) [Example 31, 2-(7,8-Dichloro-1-methyl-2-oxo-1,2,3,4,5,6-hexahydroazepino[4,5-b]indol-10-yl)acetonitrile]
IC50 (cGAS [1]): 39.5 nM | IC50 (cGAS [2]): 1120 nM

C[C@@H]1C(=O)NCCc2[nH]c3c(Cl)c(Cl)cc(OC[C@@H](C)O)c3c21 (single isomer, unassigned) [Example 83]
IC50 (cGAS [1]): 4740 nM | IC50 (cGAS [2]): > 10000 nM

CC1C(=O)NCCc2[nH]c3c(Cl)c(Cl)cc(OCC(F)F)c3c21 (racemic) [Example 76, 7,8-Dichloro-10-(2,2-difluoroethoxy)-1-methyl-3,4,5,6-tetrahydroazepino[4,5-b]indol-2(1H)-one]
IC50 (cGAS [1]): 38.6 nM | IC50 (cGAS [2]): 1470 nM

C[C@H](O)C(=O)Nc1cc(Cl)c(Cl)c2[nH]c3c(c12)[C@@H](C)C(=O)NCC3 (single isomer, unassigned) [Example 43]
IC50 (cGAS [1]): 14.9 nM | IC50 (cGAS [2]): 498 nM

CC(O)CC1CNC(=O)Cc2c1n(C)c1c(Cl)c(Cl)cc(CC#N)c21 (mixture of isomers) [Example 128, 2-(7,8-Dichloro-5-(2-hydroxypropyl)-6-methyl-2-oxo-1,2,3,4,5,6-hexahydroazepino[4,5-b]indol-10-yl)acetonitrile]
IC50 (cGAS [1]): 13.6 nM | IC50 (cGAS [2]): 217 nM

C[C@@H](O)CNc1cc(Cl)c(Cl)c2c1c1c(n2C)CCNC(=O)[C@@H]1C (single isomer, unassigned) [Example 101]
IC50 (cGAS [1]): 1260 nM | IC50 (cGAS [2]): > 10000 nM

C[C@@H]1C(=O)NCCc2c1c1c(NC(=O)CO)cc(Cl)c(Cl)c1n2CC(F)(F)F (single isomer, unassigned) [Example 187, (S)—N-(7,8-Dichloro-1-methyl-2-oxo-6-(2,2,2-trifluoroethyl)-1,2,3,4,5,6-hexahydroazepino[4,5-b]indol-10-yl)-2-hydroxyacetamide or (R)—N-(7,8-Dichloro-1-methyl-2-oxo-6-(2,2,2-trifluoroethyl)-1,2,3,4,5,6-hexahydroazepino[4,5-b]indol-10-yl)-2-hydroxyacetamide]
IC50 (cGAS [1]): > 39800 nM | IC50 (cGAS [2]): > 10000 nM

CC1C(=O)NCCc2c1c1c(OCC#N)cc(Cl)c(Cl)c1n2C (stereo not drawn) [Example 78, 2-((7,8-Dichloro-1,6-dimethyl-2-oxo-1,2,3,4,5,6-hexahydroazepino[4,5-b]indol-10-yl)oxy)acetonitrile]
IC50 (cGAS [1]): 46.5 nM | IC50 (cGAS [2]): 810 nM

C[C@H]1C(=O)NCCc2[nH]c3c(Cl)c(Cl)cc(CC#N)c3c21 (single isomer, unassigned) [Example 89]
IC50 (cGAS [1]): 20 nM | IC50 (cGAS [2]): 1130 nM

CC1C(=O)NCCc2[nH]c3c(Cl)c(Cl)cc(CCCO)c3c21 (stereo not drawn) [Example 88, 7,8-Dichloro-10-(3-hydroxypropyl)-1-methyl-3,4,5,6-tetrahydroazepino[4,5-b]indol-2(1H)-one]
IC50 (cGAS [1]): 36.1 nM | IC50 (cGAS [2]): 3230 nM

C[C@@H]1CNC(=O)[C@H](C)c2c1[nH]c1c(Cl)c(Cl)cc(NCCO)c21 (single isomer, unassigned) [Example 156]
IC50 (cGAS [1]): 1810 nM | IC50 (cGAS [2]): > 10000 nM

C[C@@H]1C(=O)NCCc2[nH]c3c(Cl)c(Cl)cc(OCC(F)(F)CO)c3c21 (single isomer, unassigned) [Example 74]
IC50 (cGAS [1]): 3440 nM | IC50 (cGAS [2]): > 10000 nM

O=C1Cc2c([nH]c3c(Cl)c(Cl)cc(-c4nnc[nH]4)c23)CCN1 [Example 29, 7,8-Dichloro-10-(4H-1,2,4-triazol-3-yl)-3,4,5,6-tetrahydroazepino[4,5-b]indol-2(1H)-one]
IC50 (cGAS [1]): 122 nM | IC50 (cGAS [2]): > 10000 nM

C[C@@H]1CNC(=O)[C@@H](C)c2c1[nH]c1c(Cl)c(Cl)cc(CC#N)c21 (single isomer, unassigned) [Example 153]
IC50 (cGAS [1]): 2420 nM | IC50 (cGAS [2]): > 10000 nM

Nc1cncc(-c2cc(Cl)c(Cl)c3[nH]c4c(c23)CC(=O)NCC4)n1 [Example 34, 10-(6-Aminopyrazin-2-yl)-7,8-dichloro-3,4,5,6-tetrahydroazepino[4,5-b]indol-2(1H)-one]
IC50 (cGAS [1]): 39.5 nM | IC50 (cGAS [2]): 1730 nM

CCC1C(=O)NCCc2[nH]c3c(Cl)c(Cl)cc(NC(=O)CO)c3c21 (stereo not drawn) [Example 11, N-(7,8-Dichloro-1-ethyl-2-oxo-1,2,3,4,5,6-hexahydroazepino[4,5-b]indol-10-yl)-2-hydroxyacetamide]
IC50 (cGAS [1]): 45.4 nM | IC50 (cGAS [2]): 1760 nM

C[C@@H]1CNC(=O)[C@H](C)c2c1[nH]c1c(Cl)c(Cl)cc(NC(=O)CO)c21 (relative stereo) [Example 159, cis-N-(7,8-dichloro-1,5-dimethyl-2-oxo-1,2,3,4,5,6-hexahydroazepino[4,5-b]indol-10-yl)-2-hydroxyacetamide]
IC50 (cGAS [1]): 60.6 nM | IC50 (cGAS [2]): 1390 nM

C[C@@H]1C(=O)NCCc2[nH]c3c(Cl)c(Cl)cc(OCCCO)c3c21 (single isomer, unassigned) [Example 14B]
IC50 (cGAS [1]): 302 nM | IC50 (cGAS [2]): 4450 nM

Cn1ncc(-c2cc(Cl)c(Cl)c3[nH]c4c(c23)CC(=O)NC[C@H]4CC(C)(F)F)n1 (single isomer, unassigned) [Example 137]
IC50 (cGAS [1]): 683 nM | IC50 (cGAS [2]): > 10000 nM

C[C@@H](O)CNc1cc(Cl)c(Cl)c2[nH]c3c(c12)[C@@H](C)C(=O)NCC3 (single isomer, unassigned) [Example 55]
IC50 (cGAS [1]): 46.5 nM | IC50 (cGAS [2]): 1920 nM

NC(=O)C(=O)Nc1cc(Cl)c(Cl)c2[nH]c3c(c12)CC(=O)NCC3 [Example 32, N^1-(7,8-Dichloro-2-oxo-1,2,3,4,5,6-hexahydroazepino[4,5-b]indol-10-yl)oxalamide]
IC50 (cGAS [1]): 33.3 nM | IC50 (cGAS [2]): 1400 nM

C[C@@H]1C(=O)NCCc2c1c1c(NC(=O)CO)cc(Cl)c(Cl)c1n2C (single isomer, unassigned) [Example 93]
IC50 (cGAS [1]): 2760 nM | IC50 (cGAS [2]): > 10000 nM

C[C@H]1C(=O)NCCc2[nH]c3c(Cl)c(Cl)cc(NCC(F)(F)CO)c3c21 (single isomer, unassigned) [Example 69, (R)-7,8-Dichloro-10-((2,2-difluoro-3-hydroxypropyl)amino)-1-methyl-3,4,5,6-tetrahydroazepino[4,5-b]indol-2(1H)-one or (S)-7,8-Dichloro-10-((2,2-difluoro-3-hydroxypropyl)amino)-1-methyl-3,4,5,6-tetrahydroazepino[4,5-b]indol-2(1H)-one]
IC50 (cGAS [1]): 630 nM | IC50 (cGAS [2]): > 10000 nM

Cn1ncc(-c2cc(Cl)c(Cl)c3[nH]c4c(c23)CC(=O)NCC4CC(C)(C)O)n1 (stereo not drawn) [Example 102, 7,8-Dichloro-5-(2-hydroxy-2-methylpropyl)-10-(2-methyl-2H-1,2,3-triazol-4-yl)-3,4,5,6-tetrahydroazepino[4,5-b]indol-2(1H)-one]
IC50 (cGAS [1]): 23.2 nM | IC50 (cGAS [2]): 727 nM

Cn1ncc(-c2cc(Cl)c(Cl)c3[nH]c4c(c23)CC(=O)NC[C@H]4CCO)n1 (single isomer, unassigned) [Example 8A]
IC50 (cGAS [1]): 15.6 nM | IC50 (cGAS [2]): 168 nM

Cn1ncc(-c2cc(Cl)c(Cl)c3[nH]c4c(c23)CC(=O)NCC4CCNCC(F)(F)F)n1 (stereo not drawn) [Example 112, 7,8-Dichloro-10-(2-methyl-2H-1,2,3-triazol-4-yl)-5-(2-((2,2,2-trifluoroethyl)amino)ethyl)-3,4,5,6-tetrahydroazepino[4,5-b]indol-2(1H)-one]
IC50 (cGAS [1]): 51.5 nM | IC50 (cGAS [2]): 2600 nM

CC1C(=O)NCCc2[nH]c3c(Cl)c(Cl)cc(NC(=O)C4CCO4)c3c21 (stereo not drawn) [Example 44, N-(7,8-Dichloro-1-methyl-2-oxo-1,2,3,4,5,6-hexahydroazepino[4,5-b]indol-10-yl)oxetane-2-carboxamide]
IC50 (cGAS [1]): 38.9 nM | IC50 (cGAS [2]): 2790 nM
